The source made the active and inactive calls. For most assays here, no stated cut-off is given here; in the data, actives have a measured EC50 and inactives only a lower limit.
Experiments:
BJ [1] = assay: cytotoxicity toward BJ-TERT fibroblasts, dose response, cell-based, RAS-independent, luminescence (AID 1933); assay type: functional; details: Homo sapiens
BJ [2] = assay: cells; assay type: functional, cell-based; details: Homo sapiens
BJ [3] = assay: cytotoxicity toward BJ-TERT-LT-ST fibroblasts, dose response, cell-based, RAS-independent, luminescence (AID 1935); assay type: functional; details: Homo sapiens;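 further: BJ fibroblasts immortalized with TERT plus LT and ST oncogenes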
[4] = cytotoxicity toward DRD oncogenic fibroblasts, dose response, cell-based, non-viral oncogenic, luminescence (AID 1934); assay type: functional; details: Homo sapiens
[5] = Luminescence Cell-Based Dose Retest to Confirm Inhibitors of Cancer Stem Cells. [Related pubchem assays (depositor defined):AID2717, AID2721]; assay type: functional; details: Homo sapiens
BJ [6] = assay: cytotoxicity toward Ras-transformed BJeLR fibroblasts, dose response, cell-based, alamar blue fluorescence, cherrypicked samples (AID 2631); assay type: functional; details: Homo sapiens;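 further: confirmatory dose-response assay in RAS-dependent BJ fibroblasts engineered with TERT, LT and ST, with cytotoxicity read by fluorescence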
Melanocortin receptor 4 = Melanocortin receptor 4 (Homo sapiens, UniProt P32245); assay type: functional, cell-based;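 further: Cell-based assay with luminescence read-out, confirmatory dose-response testing for agonist activity of biased ligands at MC4R; human U2OS cells with tagged receptor and beta-arrestin; potency of agonists that increase receptor coupling to beta-arrestin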
Melanocortin receptor 4, sequence (P32245 whole entry): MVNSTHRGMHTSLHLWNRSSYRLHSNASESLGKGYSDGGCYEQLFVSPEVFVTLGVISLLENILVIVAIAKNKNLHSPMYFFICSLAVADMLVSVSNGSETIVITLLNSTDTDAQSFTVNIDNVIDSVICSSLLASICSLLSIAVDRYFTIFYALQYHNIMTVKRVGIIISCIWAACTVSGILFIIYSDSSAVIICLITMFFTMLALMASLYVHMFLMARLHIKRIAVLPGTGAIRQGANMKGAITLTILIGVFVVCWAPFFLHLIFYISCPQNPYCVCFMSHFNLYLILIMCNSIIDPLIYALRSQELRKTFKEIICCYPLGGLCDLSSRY

[7] = cytotoxicity in HEK-293T cells, dose response, cytotoxicity control for TCR NF-kB inhibitor project, luminescence, T-cell screen hits (AID 489026); assay type: functional, cell-based;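 further: cells exposed to compound about 14 hours before the viability readout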
[8] = NIH-3T3 fibroblast cytotoxicity, dose response, cytotoxicity control, cell-based, fluorescence, Alamar Blue, secondary assay (AID 2327); assay type: functional;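 further: NIH-3T3 mouse fibroblasts cultured with fluconazole at 8 µg/mL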
[9] = C. albicans growth with fluconazole, confirmation, fluorescence, retest (AID 2467); assay type: functional, cell-based
[10] = target: T1, Carboxy-terminal domain RNA polymerase II polypeptide A small phosphatase 1 (Homo sapiens, UniProt Q9GZU7); assay: inhibitors of CTDSP1, concentration-response testing, biochemical assay, absorbance-based, actives from ultra-high-throughput screening (AID 540297); assay type: functional
T1 sequence (Q9GZU7 whole entry): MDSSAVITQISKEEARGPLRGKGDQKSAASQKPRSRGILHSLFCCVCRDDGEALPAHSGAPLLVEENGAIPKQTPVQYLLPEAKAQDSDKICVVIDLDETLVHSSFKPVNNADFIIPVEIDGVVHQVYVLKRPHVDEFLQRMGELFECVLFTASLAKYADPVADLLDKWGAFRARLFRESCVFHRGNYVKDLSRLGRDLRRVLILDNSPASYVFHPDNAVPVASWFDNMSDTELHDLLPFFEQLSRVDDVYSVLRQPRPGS

[11] = target: Luciferin 4-monooxygenase (Photinus pyralis, UniProt P08659); assay: firefly luciferase enzyme inhibitors, dose response, biochemical, luminescence (AID 1891)
Luciferin 4-monooxygenase, sequence (P08659 whole entry): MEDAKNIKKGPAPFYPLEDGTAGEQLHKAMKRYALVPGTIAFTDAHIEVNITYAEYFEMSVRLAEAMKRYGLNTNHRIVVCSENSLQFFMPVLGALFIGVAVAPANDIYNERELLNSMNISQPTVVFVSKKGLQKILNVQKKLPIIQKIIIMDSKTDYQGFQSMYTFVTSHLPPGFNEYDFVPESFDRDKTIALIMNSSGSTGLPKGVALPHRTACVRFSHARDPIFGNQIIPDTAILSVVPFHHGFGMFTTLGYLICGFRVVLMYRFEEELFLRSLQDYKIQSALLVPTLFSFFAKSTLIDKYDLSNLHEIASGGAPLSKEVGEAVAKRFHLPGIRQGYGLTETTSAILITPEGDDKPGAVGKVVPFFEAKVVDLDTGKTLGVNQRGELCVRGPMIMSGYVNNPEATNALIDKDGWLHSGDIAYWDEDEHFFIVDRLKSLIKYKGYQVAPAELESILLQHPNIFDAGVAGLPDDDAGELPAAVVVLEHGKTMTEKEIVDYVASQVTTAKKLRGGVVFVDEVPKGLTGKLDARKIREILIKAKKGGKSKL

[12] = Luminescence Cell-Based Dose Confirmation HTS to Identify Inhibitors of Platelet Dense Granule Release. [Related pubchem assays: 1663 (Primary HTS), 1678 (Summary of Project)]; assay type: functional
[13] = microbe, parasite or virus in culture; assay type: functional; details: Mycobacterium tuberculosis
[14] = Shn3 3'UTR reporter inhibitors, dose response, cell-based, Clone20 osteoblasts, firefly luciferase, cherry-picked (AID 624132); assay type: functional;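 further: firefly luciferase luminescence from reporter carrying the Shn3 3'UTR in osteoblasts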
[15] = HepG2 cell cytotoxicity, dose response, cytotoxicity control for Shn3 inhibitor project, CellTiter-Glo, cherry-picked (AID 624134); assay type: functional, cell-based
Beta-galactosidase = Beta-galactosidase (Escherichia coli, UniProt Q8VNN2); assay: beta-galactosidase enzyme inhibitors and activators, dose response, artefact control for CCR6 antagonist project, biochemical, E. coli enzyme, set 3 (AID 504712); assay type: functional
Beta-galactosidase, sequence (Q8VNN2 whole entry): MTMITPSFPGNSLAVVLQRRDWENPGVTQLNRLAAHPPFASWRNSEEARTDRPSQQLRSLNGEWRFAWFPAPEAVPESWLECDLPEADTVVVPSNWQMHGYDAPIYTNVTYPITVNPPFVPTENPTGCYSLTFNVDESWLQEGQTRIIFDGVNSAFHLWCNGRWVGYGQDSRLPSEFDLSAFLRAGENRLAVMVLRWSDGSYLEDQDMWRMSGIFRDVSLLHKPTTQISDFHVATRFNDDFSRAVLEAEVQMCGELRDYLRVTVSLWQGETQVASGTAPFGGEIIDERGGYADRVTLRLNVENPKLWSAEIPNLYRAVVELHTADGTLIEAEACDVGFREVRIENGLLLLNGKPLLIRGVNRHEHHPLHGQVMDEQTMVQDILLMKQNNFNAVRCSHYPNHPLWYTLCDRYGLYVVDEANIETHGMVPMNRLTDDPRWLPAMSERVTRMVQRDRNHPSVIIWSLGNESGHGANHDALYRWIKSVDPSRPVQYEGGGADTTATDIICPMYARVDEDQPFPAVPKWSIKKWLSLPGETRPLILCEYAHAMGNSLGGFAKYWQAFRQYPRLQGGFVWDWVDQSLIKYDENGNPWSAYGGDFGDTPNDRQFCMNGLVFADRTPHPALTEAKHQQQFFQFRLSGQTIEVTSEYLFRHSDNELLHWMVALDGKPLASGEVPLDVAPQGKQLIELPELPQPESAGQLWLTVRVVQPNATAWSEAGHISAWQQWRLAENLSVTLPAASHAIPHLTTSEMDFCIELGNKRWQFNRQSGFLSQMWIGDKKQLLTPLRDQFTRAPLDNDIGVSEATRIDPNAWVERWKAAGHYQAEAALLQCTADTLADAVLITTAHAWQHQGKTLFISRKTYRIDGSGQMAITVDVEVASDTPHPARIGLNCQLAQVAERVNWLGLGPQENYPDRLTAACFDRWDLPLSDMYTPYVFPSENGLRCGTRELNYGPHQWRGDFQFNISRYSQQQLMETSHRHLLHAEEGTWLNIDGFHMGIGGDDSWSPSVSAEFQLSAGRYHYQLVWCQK

With `CCc1ccc(CCC(=O)Nc2ncc(Cc3ccccc3Cl)s2)o1` the EC50 (BJ [1]) was 2.76 µM (active), the EC50 (BJ [2]) was 14 µM (active) and the EC50 (BJ [3]) was 2.83 µM (active). For the same compound, the EC50 [4] was 3.72 µM (active), the AC50 [5] was 0.184 µM (active) and the EC50 (BJ [6]) was 1.83 µM (active). For the same compound, the EC50 (Melanocortin receptor 4) was > 89.2 µM (inactive).
For `CC(C)Oc1ccccc1C1CC(=O)Nc2cc3c(cc21)OCCO3` (stereo not given), the EC50 (BJ [1]) was 1.36 µM (active), the EC50 (BJ [2]) was 8.62 µM (active) and the EC50 (BJ [3]) was 0.709 µM (active). For the same compound, the EC50 [4] was 0.676 µM (active), the IC50 [7] was > 80 µM (inactive) and the EC50 (BJ [6]) was 0.181 µM (active).
For `N#C/C(=C\c1ccc(OC(=O)c2cccs2)cc1)c1nc2ccccc2[nH]1`, the EC50 [8] was 76.2 µM (active), the EC50 [9] was 3.35 µM (active) and the IC50 [10] was 11.4 µM (active).
In the case of `COc1cccc(CC2(CO)CCCN(Cc3[nH]c4ccc(C)cc4c3C)C2)c1` (stereo not given), the EC50 [11] was > 112 µM (not active), the EC50 [12] was > 112 µM (not active) and the CC50 [13] was 39.3 µM (active). The EC50 (Melanocortin receptor 4) was > 89.2 µM (inactive).
With `CC(C)C[C@@H](CO)N(Cc1ccccc1)S(=O)(=O)N(Cc1ccccc1)[C@H](CO)CC(C)C` the AC50 [5] was 5.76 µM (active), the AC50 [14] was 10.1 µM (active) and the AC50 [15] was 21 µM (active).
For `CCOc1ccc(C=NNc2ccc(S(=O)(=O)Nc3ccccc3C(=O)O)cc2[N+](=O)[O-])cc1OC`, the IC50 (Beta-galactosidase) was > 66.6 µM (inactive) and the IC50 [10] was 3.51 µM (active).
